The values below come from ChEMBL document CHEMBL1201862, “PubChem BioAssay data set” (2004).

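Interpolation was linear, between the two tested concentrations surrounding the appropriate level; five concentrations were tested over 48 hours in 96-well plates. GI50 = concentration required for 50% inhibition of growth.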 The source made the active and inactive calls. Cut-off read from the data, not from the text of the source: active = GI50 up to about 1.1 µM and inactive = higher. Where only a bound is given, the exact number is not on record here.

Some test systems named below: MCF7; ACHN; MDA-MB-435; TK-10; HOP-62; UO-31; CCRF-CEM; COLO 205; LOX IMVI; Malme-3M; NCI-H23; NCI-H226; UACC-62; HOP-92; SF-268; M14; EKVX; OVCAR-8; OVCAR-3; 786-0.
What all share (test): inhibition of tumour cell growth, NCI panel, 48 h

For `COc1ccc(N2C(=O)/C(=C\c3ccccc3)SC2c2cc(OC)c(OC)c(OC)c2)cc1` (centres undefined), the GI50 was 38.4 µM (inactive) in the experiment on MCF7; 60.3 µM (inactive) in the experiment with ACHN; 20 µM (inactive) in the experiment on MDA-MB-435; > 100 µM (inactive) with TK-10; 65.8 µM (inactive) in the experiment with HOP-62; 50.4 µM (inactive) in the experiment with UO-31. Besides, the GI50 in the experiment with CCRF-CEM is 10.7 µM (inactive); with COLO 205, 74.1 µM (inactive); with LOX IMVI, 56.9 µM (inactive); in the experiment on Malme-3M, > 100 µM (inactive); in the experiment on NCI-H23, 92.7 µM (inactive); with NCI-H226, > 100 µM (inactive). The GI50 with UACC-62 is 52.5 µM (inactive); in the experiment with HOP-92, > 100 µM (inactive); with SF-268, > 100 µM (inactive); with M14, 28.5 µM (inactive); in the experiment on EKVX, 15 µM (inactive); in the experiment with OVCAR-8, > 100 µM (inactive).

On to `CC(C)NC(=O)OCc1c(COC(=O)NC(C)C)n(C)c2c1ccc1sccc12`, for which the GI50 in the experiment with MCF7 is 13.5 µM (inactive); in the experiment on ACHN it was 7 µM (inactive); in the experiment with MDA-MB-435, 13.2 µM (inactive); in the experiment with TK-10, 18.6 µM (inactive); in the experiment with HOP-62 it was 20.9 µM (inactive); in the experiment on OVCAR-3, 15.7 µM (inactive). Moreover, the GI50 in the experiment on UO-31 is 9.14 µM (inactive); in the experiment on CCRF-CEM, 10.2 µM (inactive); in the experiment on COLO 205 it was 13.6 µM (inactive); in the experiment with LOX IMVI it was 7.94 µM (inactive); with Malme-3M, 3.15 µM (inactive); with NCI-H23 it was 7.4 µM (inactive). Further, the GI50 in the experiment with NCI-H226 was 2.67 µM (inactive); in the experiment on UACC-62, 10.2 µM (inactive); with HOP-92, 4.9 µM (inactive); in the experiment with SF-268 it was 6.18 µM (inactive); in the experiment with M14 it was 14.1 µM (inactive); in the experiment with EKVX it was 11.2 µM (inactive). Besides, the GI50 with 786-0 is 6.35 µM (inactive); in the experiment with OVCAR-8, > 100 µM (inactive).

For `O=c1[nH]c2ccsc2c(=O)n1COCc1ccccc1`, the GI50 in the experiment with MCF7, in the experiment with ACHN, in the experiment with MDA-MB-435, in the experiment with TK-10, in the experiment with HOP-62 and in the experiment on OVCAR-3 was > 100 µM (inactive) each time. Besides, the GI50 in the experiment on UO-31, in the experiment on CCRF-CEM, in the experiment on COLO 205, in the experiment on LOX IMVI, in the experiment with Malme-3M and in the experiment on NCI-H23 was > 100 µM (inactive) each time. The GI50 in the experiment with NCI-H226 is > 100 µM (inactive); with HOP-92 it was 79.8 µM (inactive); in the experiment on SF-268, > 100 µM (inactive); in the experiment on M14, > 100 µM (inactive); with EKVX, > 100 µM (inactive); with 786-0, > 100 µM (inactive). Also, the GI50 in the experiment on OVCAR-8 is > 100 µM (inactive).

In the case of `CS(=O)(=O)N1CC(CCl)c2ccc(O)cc21` (centres undefined), the GI50 was 1.98 µM (inactive) in the experiment on MCF7; 3.4 µM (inactive) with ACHN; 1.89 µM (inactive) with MDA-MB-435; 2.32 µM (inactive) in the experiment on TK-10; 3.56 µM (inactive) with HOP-62; 2.95 µM (inactive) in the experiment on OVCAR-3. Besides, the GI50 was 2.32 µM (inactive) in the experiment with UO-31; 1.58 µM (inactive) in the experiment on CCRF-CEM; 1.9 µM (inactive) in the experiment on COLO 205; 3.57 µM (inactive) in the experiment with LOX IMVI; 2.19 µM (inactive) in the experiment with Malme-3M; 2.02 µM (inactive) with NCI-H23. Further, the GI50 in the experiment on NCI-H226 was 2.34 µM (inactive); in the experiment on UACC-62, 4.17 µM (inactive); in the experiment on HOP-92, 3.11 µM (inactive); in the experiment with SF-268 it was 0.155 µM (active); in the experiment with EKVX, 5.31 µM (inactive); with 786-0, 3.31 µM (inactive). Further, the GI50 in the experiment with OVCAR-8 is 2.08 µM (inactive).

Take `Cc1ccc(C2=Nn3c(nc4sc(-c5ccccc5)cc4c3=O)SC2)cc1`: the GI50 in the experiment with MCF7, with ACHN, with MDA-MB-435, in the experiment with TK-10, in the experiment on HOP-62 and in the experiment with OVCAR-3 was > 100 µM (inactive) in each case. Moreover, the GI50 in the experiment with UO-31, with CCRF-CEM, in the experiment on COLO 205, in the experiment with LOX IMVI, with Malme-3M and with NCI-H23 was > 100 µM (inactive) throughout. Also, the GI50 in the experiment with NCI-H226, with UACC-62, in the experiment on HOP-92, in the experiment with SF-268, with EKVX and with 786-0 was > 100 µM (inactive) each time. Also, the GI50 in the experiment on OVCAR-8 was > 100 µM (inactive).

Consider `Cc1ccc2nc(SCC(=O)N/N=C3\C(=O)Nc4ccccc43)n(-c3ccccc3)c(=O)c2c1`, for which the GI50 was 16.1 µM (inactive) in the experiment with MCF7; 13.8 µM (inactive) with ACHN; 16.5 µM (inactive) with MDA-MB-435; 15.5 µM (inactive) with TK-10; 12.2 µM (inactive) in the experiment on HOP-62; 18.8 µM (inactive) with OVCAR-3. The GI50 with UO-31 was 2.02 µM (inactive); with CCRF-CEM it was 18.4 µM (inactive); in the experiment with COLO 205, 13.4 µM (inactive); in the experiment with LOX IMVI, 15.6 µM (inactive); with Malme-3M, 20.2 µM (inactive); with NCI-H23 it was 16.4 µM (inactive). Besides, the GI50 in the experiment with NCI-H226 is 16.2 µM (inactive); with UACC-62, 16.9 µM (inactive); with HOP-92, 14.3 µM (inactive); in the experiment on SF-268, 13.7 µM (inactive); with M14 it was 16.3 µM (inactive); in the experiment with EKVX, 15.6 µM (inactive). Further, the GI50 in the experiment on 786-0 is 16 µM (inactive).

Turning to `CC1OC2OC3C(OCC(O)C3O)OC(=O)[C@]34CCC(C)(C)CC3C3=CCC5[C@@]6(C)C[C@H](O)[C@H](OC7OC(CO)C(O)C(O)C7OC7OCC(OC(=O)CC(C)(O)CC(=O)OC1C(O)C2O)C(O)C7O)[C@@](C)(CO)C6CC[C@@]5(C)[C@]3(C)CC4` (some centres undefined), the GI50 in the experiment on MCF7 was 13 µM (inactive); in the experiment on ACHN, 6.34 µM (inactive); in the experiment with MDA-MB-435, 5.89 µM (inactive); in the experiment with TK-10, 8.79 µM (inactive); in the experiment with HOP-62, 2.75 µM (inactive); in the experiment with OVCAR-3, 9.64 µM (inactive). Further, the GI50 was 6.03 µM (inactive) with UO-31; 5.68 µM (inactive) in the experiment with CCRF-CEM; 1.89 µM (inactive) with COLO 205; 9.86 µM (inactive) in the experiment on LOX IMVI; 3.68 µM (inactive) in the experiment with Malme-3M; 3.1 µM (inactive) in the experiment on NCI-H23. Further, the GI50 in the experiment on NCI-H226 is 14.9 µM (inactive); in the experiment on UACC-62, 4.3 µM (inactive); in the experiment with HOP-92, 2.32 µM (inactive); in the experiment on SF-268, 2.45 µM (inactive); with M14, 2.82 µM (inactive); with 786-0, 12.1 µM (inactive). In addition, in the experiment with OVCAR-8, the GI50 is 4.5 µM (inactive).

For `CCOC(=O)c1cc2c([nH]1)c(O)cc1c2ccn1Cc1ccccc1`, the GI50 was 12.5 µM (inactive) with MCF7; 16.9 µM (inactive) in the experiment with MDA-MB-435; 17.7 µM (inactive) in the experiment on HOP-62; 14.6 µM (inactive) in the experiment with OVCAR-3; 14.9 µM (inactive) in the experiment with UO-31; 10.8 µM (inactive) with CCRF-CEM. In addition, the GI50 was 21.4 µM (inactive) in the experiment on COLO 205; 14.4 µM (inactive) in the experiment on LOX IMVI; 18.5 µM (inactive) in the experiment with Malme-3M; 13.7 µM (inactive) in the experiment on NCI-H23; 15.1 µM (inactive) with NCI-H226; 15.5 µM (inactive) in the experiment with UACC-62. Also, the GI50 in the experiment with HOP-92 is 13.5 µM (inactive); in the experiment with SF-268 it was 19.5 µM (inactive); in the experiment with M14 it was 23.6 µM (inactive); in the experiment with EKVX, 12.8 µM (inactive); with 786-0, 18.1 µM (inactive); in the experiment with OVCAR-8 it was 17.2 µM (inactive).

As for `CCOC(=O)c1nc2ccccc2nc1Oc1ccc(OC)cc1`, the GI50 with MCF7, in the experiment with ACHN, with MDA-MB-435, with TK-10, in the experiment on HOP-62 and with OVCAR-3 was > 100 µM (inactive) throughout. For the same molecule, the GI50 in the experiment on UO-31, in the experiment on CCRF-CEM, in the experiment with COLO 205, in the experiment with LOX IMVI, in the experiment on Malme-3M and in the experiment with NCI-H226 was > 100 µM (inactive) each time. In addition, the GI50 with UACC-62, in the experiment on HOP-92, in the experiment with SF-268, in the experiment with M14, with EKVX and in the experiment on 786-0 was > 100 µM (inactive) each time. Further, in the experiment on OVCAR-8, the GI50 was > 100 µM (inactive).

Turning to `N#Cc1ccccc1NC(=O)C(=O)c1c(O)c2ccccc2oc1=O`, the GI50 in the experiment with MCF7, in the experiment on ACHN, in the experiment on MDA-MB-435, in the experiment on TK-10, with HOP-62 and in the experiment with OVCAR-3 was > 100 µM (inactive) each time. Moreover, the GI50 in the experiment on UO-31, in the experiment on CCRF-CEM, in the experiment on LOX IMVI, in the experiment on Malme-3M, in the experiment on NCI-H23 and with NCI-H226 was > 100 µM (inactive) in each case. The GI50 with UACC-62, in the experiment with HOP-92, in the experiment on SF-268, with M14, in the experiment on EKVX and in the experiment with 786-0 was > 100 µM (inactive) each time. For the same molecule, the GI50 with OVCAR-8 is > 100 µM (inactive).
